The source of these data is ChEMBL document CHEMBL5126543, “Tandem construction of biological relevant aliphatic 5-membered N-heterocycles” (Eur J Med Chem, 2022).

Data set [1] deals with HeLa. Kind of data set: Cytotoxicity against human HeLa cells treated for 72 hrs by MTT assay. The data set is classed as functional, cell-based. (In general: Tetrazolium dyes change colour on reduction, which living cells bring about.)
Data set [2] deals with A549. Kind of data set: Cytotoxicity against human A549 cells treated for 72 hrs by MTT assay. The settings on record: A549, 72 h. The data set is classed as functional, cell-based.
The subject of data set [3] is SK-BR-3. Kind of data set: Cytotoxicity against human SK-BR-3 cells treated for 72 hrs by MTT assay. The class given is functional, cell-based. The following applies: SK-BR-3, 72 h.
Data set [4] concerns MCF7. Kind of data set: Cytotoxicity against human MCF7 cells treated for 72 hrs by MTT assay. The class given is functional, cell-based. The settings on record: MCF7, 72 h.
For data set [5], the system named is PC-3. Kind of data set: Cytotoxicity against human PC-3 cells treated for 72 hrs by MTT assay. The class given is functional, cell-based. The following applies: PC-3, 72 h.
Data set [6] is described as follows: Cytotoxicity against HFF-1 cells measured after 72 hrs by WST-1 assay. The settings on record: human. The data set is classed as toxicity, cell-based.
Data set [7] has as its system MDA-MB-231. Kind of data set: Antiproliferative activity against human MDA-MB-231 cells measured after 72 hrs by WST-1 assay. The class given is functional, cell-based. The settings on record: MDA-MB-231, 72 h.
In data set [8] the test system is SNB-19. Kind of data set: Antiproliferative activity against human SNB-19 cells measured after 72 hrs by WST-1 assay. The class given is functional, cell-based. The settings on record: SNB-19, 72 h.
Data set [9] concerns C32. Kind of data set: Antiproliferative activity against human C32 cells measured after 72 hrs by WST-1 assay. The data set is classed as functional, cell-based. The settings on record: C32, 72 h.
Data set [10] concerns Escherichia coli. Kind of data set: Antimicrobial activity against Escherichia coli ATCC 25922 incubated for 18 to 20 hrs. The class given is functional. The settings on record: time 18-20 hrs.
Data set [11] concerns Priestia megaterium. Kind of data set: Antimicrobial activity against Bacillus megaterium Bm11 incubated for 18 to 20 hrs. The data set is classed as functional. The settings on record: time 18-20 hrs.
Data set [12] deals with Pseudomonas aeruginosa. Kind of data set: Antimicrobial activity against Pseudomonas aeruginosa ATCC 27853 incubated for 18 to 20 hrs. The settings on record: time 18-20 hrs. The class given is functional.
Data set [13] concerns Candida albicans. Kind of data set: Antimicrobial activity against Candida albicans ATCC 24433 incubated for 18 to 20 hrs. The class given is functional. The settings on record: time 18-20 hrs.
Data set [14] concerns Staphylococcus epidermidis. Kind of data set: Antimicrobial activity against Staphylococcus epidermidis ATCC 12228 incubated for 18 to 20 hrs. The class given is functional. The settings on record: time 18-20 hrs.

SMILES strings stand for the structures. ≈ marks a conversion by molar mass, not a printed value. Where a SMILES comes first, the peptide text is derived from it. [ ]: non-standard residue; d: D form. Pro(cis-4-CF3) = O=C(O)[C@@H]1C[C@H](C(F)(F)F)CN1; Pro(4R-Bn) = O=C(O)[C@@H]1C[C@@H](Cc2ccccc2)CN1; Pro(cis-4-F) = O=C(O)[C@@H]1C[C@H](F)CN1; Pro(4S-NH2) = N[C@@H]1CN[C@H](C(=O)O)C1

The term IC50 denotes the concentration needed to halve the response being measured. For `Clc1ccc(-c2cc(Nc3ccnc4cc(Cl)ccc34)ccc2CN2CCOCC2)cc1`, the IC50 in [1] is more than 200 µM; in [2] it was more than 200 µM; in data set [3], 2.98 µM; in [4], 170 µM; in [5], 11.7 µM.
For the compound `Clc1ccc(-c2cc(Nc3ccnc4cc(Cl)ccc34)ccc2CN2CCCC2)cc1`, the IC50 in data set [1] is 32 µM; in [2] it was more than 200 µM; in data set [3], 32.7 µM; in data set [4], more than 200 µM; in [5] it was 42.4 µM.
Turning to `Clc1ccc2c(Nc3ccc(CN4CCCCC4)c(-c4ccccc4)c3)ccnc2c1`, the IC50 in data set [1] was 5.57 µM; in [2] it was more than 210 µM; in data set [3], 64.3 µM; in data set [4] it was more than 200 µM; in data set [5] it was 74.4 µM.
The matching figures for `CCN(CC)Cc1ccc(Nc2ccnc3cc(Cl)ccc23)cc1-c1ccccc1`: more than 200 µM, 33.6 µM, 3.65 µM, more than 200 µM and 34.2 µM.
With `Clc1ccc2c(Nc3ccc(CN4CCOCC4)c(-c4ccccc4)c3)ccnc2c1`, the IC50 in [1] is 54.4 µM; in data set [2], 69 µM; in [3], 76.5 µM; in data set [4], more than 200 µM; in data set [5] it was 11.7 µM.
The matching figures for `Clc1ccc2c(Nc3ccc(CN4CCCC4)c(-c4ccccc4)c3)ccnc2c1`: less than 1 µM, 4.38 µM, 0.009 µM, 7.99 µM and 44 µM.
The matching figures for `CN1CCN(Cc2ccc(Nc3ccnc4cc(Cl)ccc34)cc2-c2ccc(Cl)cc2)CC1`: less than 1 µM, 43.5 µM, 16.8 µM, 25 µM and 24.2 µM.
The matching figures for `Clc1ccc(-c2cc(Nc3ccnc4cc(Cl)ccc34)ccc2CN2CCCCC2)cc1`: more than 200 µM, more than 200 µM, 2.98 µM, more than 200 µM and more than 200 µM.
`Clc1ccc2c(Nc3ccc(CN4CCCC4)cc3)ccnc2c1`: the IC50 came to 28 µM in data set [1]; 58.8 µM in [2]; 12.7 µM in data set [3]; 46.9 µM in data set [4]; 42.7 µM in data set [5].
For `CCN(CC)Cc1ccc(Nc2ccnc3cc(Cl)ccc23)cc1` the same measures were 2.03 µM, more than 250 µM, 121 µM, more than 250 µM and more than 250 µM.
`Clc1ccc2c(Nc3ccc(CN4CCCCC4)cc3)ccnc2c1`: the IC50 is less than 1 µM in [1]; more than 250 µM in data set [2]; 33.9 µM in data set [3]; 69.9 µM in [4]; 149 µM in [5].
For `Clc1ccc2c(Nc3ccc(CN4CCOCC4)cc3)ccnc2c1` the same measures were less than 1 µM, more than 250 µM, 6.16 µM, 69.5 µM and 11.7 µM.
For `CC(C)(C)NCc1ccc(Nc2ccnc3cc(Cl)ccc23)cc1` the same measures were 36 µM, 197 µM, 37.3 µM, more than 250 µM and 149 µM.
As for `Cn1cnc2nc(SCC#CCN3CCOCC3)nc(SCC#CCN3CCOCC3)c21`, the midpoint of inhibition in data set [6], the IC50 at 72 h, lay at 0.37 µM. In addition, the IC50 in data set [7] amounted to 50.8 µM; in data set [8], 21.5 µM; in [9] it was 21.5 µM.
In data set [6], `Cn1c(SCC#CCN2CCCCC2)nc2c1c(=O)[nH]c(=O)n2C` showed an IC50 at 72 h of 30.4 µM. The IC50 in [7] was 364 µM; in data set [8] it was 166 µM; in data set [9] it was 355 µM.
The matching figures for `Cn1c(SCC#CCN2CCCC2)nc2c1c(=O)[nH]c(=O)n2C`: 34.3 µM, 472 µM, 177 µM and 51.1 µM.
Turning to `Cn1c(SCC#CCN2CCCC2)nc2nc(Cl)nc(SCC#CCN3CCCC3)c21`, 3.63 µM corresponded to half-maximal inhibition in [6] (IC50 at 72 h). Also, the values for the IC50 in [7], in data set [8] and in data set [9] were 3.83 µM, 0.52 µM and 4.55 µM, respectively.
For `CCN(CC)CC#CCSc1nc(SCC#CCN(CC)CC)c2c(ncn2C)n1` the same measures were 5.95 µM, 38.5 µM, 48.9 µM and 23.9 µM.
For `Cn1c(SCC#CCN2CCCCC2)nc2nc(Cl)nc(SCC#CCN3CCCCC3)c21` the same measures were 5.5 µM, 38.1 µM, 11.6 µM and 19.1 µM.
The matching figures for `CCN(CC)CC#CCSc1nc2c(c(=O)[nH]c(=O)n2C)n1C`: 3.68 µM, 68.1 µM, 1.48 µM and 26.4 µM.
The compound `Cn1c(SCC#CCN2CCOCC2)nc2nc(Cl)nc(SCC#CCN3CCOCC3)c21` returned an IC50 at 72 h in data set [6] of 36.4 µM. For the same compound, the IC50 in data set [7] stood at 74 µM; in data set [8], 26.1 µM; in data set [9], 4.08 µM.
For `Cn1c(SCC#CCN2CCOCC2)nc2c1c(=O)[nH]c(=O)n2C` the same measures were 5.87 µM, 6.54 µM, 1.39 µM and 22.7 µM.
In turn, `Cn1cnc2nc(SCC#CCN3CCCCC3)nc(SCC#CCN3CCCCC3)c21` returned an IC50 at 72 h in data set [6] of 3.98 µM. Moreover, the 50% inhibitory concentration (IC50) in data set [7] is 7.35 µM; in [8] it was 4.64 µM; in data set [9], 6.39 µM.
For `CCN(CC)CC#CCSc1nc(Cl)nc2nc(SCC#CCN(CC)CC)n(C)c12` the same measures were 1 µM, 10 µM, 2.91 µM and 5.33 µM.
The matching figures for `Cn1cnc2nc(SCC#CCN3CCCC3)nc(SCC#CCN3CCCC3)c21`: 10 µM, 19.9 µM, 19.4 µM and 6.81 µM.
What is called MIC is the lowest concentration that inhibits growth of the organism. Regarding `CC[C@H](C)[C@H](NC(=O)[C@H](CCCNC(=N)N)NC(=O)CNC(=O)[C@H](CC(C)C)NC(=O)[C@H](Cc1ccccc1)NC(=O)[C@H](CCCCN)NC(=O)[C@H](CO)NC(=O)[C@H](Cc1ccccc1)NC(=O)[C@H](Cc1c[nH]c2ccccc12)NC(=O)[C@H](CCC(N)=O)NC(=O)[C@@H]1C[C@@H](Cc2ccccc2)CN1C(=O)[C@@H](NC(=O)[C@@H](N)Cc1ccccc1)C(C)C)C(=O)N[C@@H](CC(C)C)C(N)=O` (H-FV[Pro(4R-Bn)]QWFSKFLGRIL-NH2), the MIC in [10] came to 25 µM (≈ 45.7 µg/mL); in [11], 3.12 µM (≈ 5.7 µg/mL); in [12], 50 µM (≈ 91.4 µg/mL); in data set [13] it was 25 µM (≈ 45.7 µg/mL); in data set [14] it was 3.12 µM (≈ 5.7 µg/mL).
Take `CC[C@H](C)[C@H](NC(=O)[C@H](CCCNC(=N)N)NC(=O)CNC(=O)[C@H](CC(C)C)NC(=O)[C@H](Cc1ccccc1)NC(=O)[C@H](CCCCN)NC(=O)[C@H](CO)NC(=O)[C@H](Cc1ccccc1)NC(=O)[C@H](Cc1c[nH]c2ccccc12)NC(=O)[C@H](CCC(N)=O)NC(=O)[C@@H]1C[C@H](N)CN1C(=O)[C@@H](NC(=O)[C@@H](N)Cc1ccccc1)C(C)C)C(=O)N[C@@H](CC(C)C)C(N)=O` (H-FV[Pro(4S-NH2)]QWFSKFLGRIL-NH2): the MIC in data set [10] worked out at 3.12 µM (≈ 5.47 µg/mL); in data set [11], 3.12 µM (≈ 5.47 µg/mL); in data set [12], 3.12 µM (≈ 5.47 µg/mL); in [13], 12.5 µM (≈ 21.9 µg/mL); in data set [14], 3.12 µM (≈ 5.47 µg/mL).
On to `CC[C@H](C)[C@H](NC(=O)[C@H](CCCNC(=N)N)NC(=O)CNC(=O)[C@H](CC(C)C)NC(=O)[C@H](Cc1ccccc1)NC(=O)[C@H](CCCCN)NC(=O)[C@H](CO)NC(=O)[C@H](Cc1ccccc1)NC(=O)[C@H](Cc1c[nH]c2ccccc12)NC(=O)[C@H](CCC(N)=O)NC(=O)[C@@H]1C[C@H](C(F)(F)F)CN1C(=O)[C@@H](NC(=O)[C@@H](N)Cc1ccccc1)C(C)C)C(=O)N[C@@H](CC(C)C)C(N)=O` (H-FV[Pro(cis-4-CF3)]QWFSKFLGRIL-NH2), for which the MIC in data set [10] was found to be 12.5 µM (≈ 22.6 µg/mL); in data set [11] it was 3.12 µM (≈ 5.63 µg/mL); in [12], 25 µM (≈ 45.1 µg/mL); in [13], 12.5 µM (≈ 22.6 µg/mL); in [14], 3.12 µM (≈ 5.63 µg/mL).
As for `CC[C@H](C)[C@H](NC(=O)[C@H](CCCNC(=N)N)NC(=O)CNC(=O)[C@H](CC(C)C)NC(=O)[C@H](Cc1ccccc1)NC(=O)[C@H](CCCCN)NC(=O)[C@H](CO)NC(=O)[C@H](Cc1ccccc1)NC(=O)[C@H](Cc1c[nH]c2ccccc12)NC(=O)[C@H](CCC(N)=O)NC(=O)[C@@H]1C[C@H](F)CN1C(=O)[C@@H](NC(=O)[C@@H](N)Cc1ccccc1)C(C)C)C(=O)N[C@@H](CC(C)C)C(N)=O` (H-FV[Pro(cis-4-F)]QWFSKFLGRIL-NH2), the MIC came to 12.5 µM (≈ 21.9 µg/mL) in data set [10]; 3.12 µM (≈ 5.48 µg/mL) in data set [11]; 12.5 µM (≈ 21.9 µg/mL) in data set [12]; 12.5 µM (≈ 21.9 µg/mL) in data set [13]; 3.12 µM (≈ 5.48 µg/mL) in data set [14].
`COc1cc2c(c(OC)c1OC)-c1ccc(OC)c(=O)cc1[C@@H](NC(C)=O)CC2` [COLCHICINE]: the results for the IC50 in data set [3], in data set [4] and in data set [5] were 0.04 µM, 25 µM and 0.03 µM, respectively.
Regarding `COc1cccc2c1C(=O)c1c(O)c3c(c(O)c1C2=O)C[C@@](O)(C(=O)CO)C[C@@H]3O[C@H]1C[C@H](N)[C@H](O)[C@H](C)O1` [DOXORUBICIN], the IC50 was found to be 2.45 µM in [1], 2.36 µM in data set [3], 3.62 µM in data set [4] and 1.66 µM in data set [5].
